Data as given in the supplement of paper PMC10307832.

Assays:
Assay in all cases: relative viability (nuclei count vs DMSO), 5 days (fraction); higher = more cells survive
[1] = compound: CC1=NN=C(O1)C2=NN=C(C=C2)N3CCC(CC3)OC4=C(C=CC(=C4)F)Cl + O=C(CCCCCCC(=O)Nc1ccccc1)NO [Vorinostat] (partner 1 µM)
Summary of the method: (§1)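 After 5 days of treatment, lung cancer cells in 1536-well plates were fixed and stained in a single step (final 0.05% Triton X-100, 1% formaldehyde, 1 ug/ml Hoechst) and their nuclei counted on 4× images. Treatment had been applied by pin tool the day after seeding as one drug alone or as a fixed anchor-drug dose with five library-drug doses (not always all listed) in √10 steps. Relative viability is the nuclei count of treated wells divided by that of vehicle wells, and values are medians of duplicate plates.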

[2] = compound: CC1=NN=C(O1)C2=NN=C(C=C2)N3CCC(CC3)OC4=C(C=CC(=C4)F)Cl + CC(C)C[C@H](NC(=O)[C@H](Cc1ccccc1)NC(=O)c1cnccn1)B(O)O [Bortezomib] (partner 0.002 µM)
Summary of the method: as §1

[3] = compound: CC(C)C[C@@H](C(=O)N[C@H](C(=O)OC1CCCC1)c1ccccc1)[C@H](O)C(=O)NO [Tosedostat] + C[C@@H](Oc1cc(-c2cnn(C3CCNCC3)c2)cnc1N)c1c(Cl)ccc(F)c1Cl [Crizotinib] (partner 1 µM)
Summary of the method: as §1

[4] = compound: CC(C)C[C@@H](C(=O)N[C@H](C(=O)OC1CCCC1)c1ccccc1)[C@H](O)C(=O)NO [Tosedostat] + CC(=O)c1c(C)c2cnc(Nc3ccc(N4CCNCC4)cn3)nc2n(C2CCCC2)c1=O [Palbociclib] (partner 0.5 µM)
Summary of the method: as §1

| Cell Line | relative viability ([1]; first compound 0.253 µM) | relative viability ([1]; first compound 0.8 µM) | relative viability ([1]; first compound 2.53 µM) | relative viability ([1]; first compound 8 µM) | relative viability ([2]; first compound 0.253 µM) | relative viability ([2]; first compound 0.8 µM) | relative viability ([2]; first compound 2.53 µM) | relative viability ([2]; first compound 8 µM) | relative viability ([3]; first compound 0.02 µM) | relative viability ([3]; first compound 0.06325 µM) | relative viability ([3]; first compound 0.2 µM) | relative viability ([3]; first compound 0.6325 µM) | relative viability ([3]; first compound 2 µM) | relative viability ([4]; first compound 0.02 µM) | relative viability ([4]; first compound 0.06325 µM) | relative viability ([4]; first compound 0.2 µM) | relative viability ([4]; first compound 0.6325 µM) | relative viability ([4]; first compound 2 µM) |
| --- | --- | --- | --- | --- | --- | --- | --- | --- | --- | --- | --- | --- | --- | --- | --- | --- | --- | --- |
| 201T | 0.474 | 0.501 | 0.478 | 0.479 | 0.484 | 0.569 | 0.592 | 0.552 | 1.04 | 1.05 | 1.08 | 1.11 | 1.09 | 0.362 | 0.367 | 0.372 | 0.38 | 0.377 |
| A549 |  |  |  |  |  |  |  |  | 0.869 | 0.726 | 0.702 | 0.652 | 0.683 |  |  |  |  |  |
| A-427 | 0.796 | 0.689 | 0.791 | 0.703 | 0.867 |  | 0.864 | 0.802 | 0.972 | 0.847 | 0.87 | 0.916 | 0.895 | 0.501 | 0.514 | 0.55 | 0.494 | 0.507 |
| ABC-1 | 0.542 | 0.487 | 0.402 | 0.525 | 0.26 | 0.314 | 0.237 | 0.267 | 1.15 | 0.868 | 1.02 | 0.83 | 0.631 | 0.826 | 0.706 | 0.704 | 0.576 | 0.531 |
| BEN | 0.566 | 0.536 | 0.551 | 0.538 | 0.726 | 0.771 | 0.932 | 0.719 | 0.894 | 0.875 | 0.818 | 1.02 | 0.956 | 0.454 | 0.463 | 0.537 | 0.497 | 0.465 |
| CAL-12T | 0.524 | 0.542 | 0.566 | 0.368 | 1.01 | 0.867 | 0.86 | 0.696 | 0.702 | 0.594 | 0.727 | 0.533 | 0.661 | 0.468 | 0.362 | 0.312 | 0.299 | 0.397 |
| COR-L23 | 0.332 | 0.378 | 0.375 | 0.316 | 0.737 | 0.754 | 0.836 | 0.68 | 0.86 | 0.554 | 0.642 | 0.604 | 0.524 | 0.389 | 0.357 | 0.338 | 0.277 | 0.288 |
| COR-L 105 | 0.797 | 0.919 | 0.794 | 0.8 | 0.851 | 0.78 | 0.983 | 1.18 | 0.865 | 0.751 | 0.827 | 0.493 | 0.548 | 0.402 | 0.43 | 0.398 | 0.357 | 0.392 |
| Calu-6 |  |  |  |  | 0.764 | 0.807 | 0.832 | 0.804 | 0.924 | 0.755 | 0.762 | 0.682 | 0.415 |  |  |  |  |  |
| ChaGo-K-1 | 0.546 | 0.444 | 0.55 | 0.448 | 0.624 | 0.617 | 0.794 | 0.605 | 1.05 | 1.03 | 1.14 | 1.01 | 0.84 | 1.01 | 0.907 | 0.87 | 0.858 | 0.671 |
| EBC-1 |  |  |  |  | 0.479 | 0.476 | 0.444 | 0.412 | 0.197 | 0.185 | 0.197 | 0.179 | 0.153 |  |  |  |  |  |
| EKVX | 0.439 | 0.381 | 0.442 | 0.463 | 0.368 | 0.301 | 0.357 | 0.418 | 0.763 | 0.842 | 0.921 | 0.807 | 0.789 | 0.368 | 0.374 | 0.403 | 0.396 | 0.389 |
| EMC-BAC-2 | 0.512 | 0.426 | 0.446 | 0.239 | 1.02 | 0.964 | 1.02 | 0.95 | 0.847 | 0.724 | 0.742 | 0.703 | 0.536 | 0.516 | 0.522 | 0.536 | 0.484 | 0.489 |
| EPLC-272H | 0.352 | 0.529 | 0.313 | 0.387 | 0.667 |  | 1.05 | 0.996 | 0.915 | 0.877 | 0.635 | 0.613 | 0.25 | 0.337 | 0.311 | 0.348 | 0.303 | 0.248 |
| H3255 | 0.581 | 0.597 | 0.533 | 0.557 | 0.465 | 0.569 | 0.478 | 0.526 | 0.976 | 0.846 | 0.812 | 0.669 | 0.827 | 0.303 | 0.32 | 0.342 | 0.331 | 0.319 |
| HARA | 0.476 | 0.345 | 0.499 | 0.432 | 0.483 | 0.335 | 0.353 | 0.293 | 1.12 | 0.912 | 0.991 | 0.997 | 1.14 | 0.325 | 0.255 | 0.262 | 0.232 | 0.265 |
| HCC-15 | 0.534 | 0.431 | 0.511 | 0.554 | 0.485 | 0.407 | 0.415 | 0.395 | 0.939 | 0.836 | 0.834 | 0.777 | 0.635 | 0.759 | 0.688 | 0.572 | 0.708 | 0.653 |
| HCC-44 | 0.584 | 0.708 | 0.698 | 0.423 | 0.449 | 0.43 | 0.398 | 0.431 | 0.861 | 0.755 | 0.759 | 0.741 | 0.492 | 1.05 | 0.982 | 1.01 | 0.983 | 0.928 |
| HCC-78 | 0.425 | 0.48 | 0.393 | 0.381 | 0.326 | 0.403 | 0.393 | 0.363 | 0.298 | 0.337 | 0.324 | 0.371 | 0.391 | 0.502 | 0.46 | 0.41 | 0.486 | 0.495 |
